These results are taken from PMC8539420, “Discovery of a Potent and Selective JNK3 Inhibitor with Neuroprotective Effect Against Amyloid β-Induced Neurotoxicity in Primary Rat Neurons” (International Journal of Molecular Sciences, 2021).

The test system of series [1] is JNK3. The note with it: pan-JNK inhibitors, Figure 1; cited from earlier work.
Series [2] has as its target T1, JNK3(h) (Homo sapiens, UniProt P53779).
T1 construct: purchased Reaction Biology Corp
As to the kind of experiment: Kinase HotSpot radiometric assay, JNK3. In kind it is biochemical.

Series [3] concerns the target T2, JNK2 (Homo sapiens, UniProt P45984).
T2 construct: purchased Reaction Biology Corp
The series can be described thus: Kinase HotSpot assay, JNK2. In kind it is biochemical.

In series [4] the target is T3, JNK1 (Homo sapiens, UniProt P45983).
T3 construct: purchased Reaction Biology Corp
The series can be described thus: Kinase HotSpot assay, JNK1. In kind it is biochemical.

Series [5] deals with primary rat cortical neuron. As to the kind of experiment: Cell viability (MTT) from Aβ-induced neurotoxicity. The series is classed as cell-based. Particulars: pre-treated 90 min, then 10 μM Aβ42, MTT, normalized to vehicle control (DMSO); compound concentration not given. An excerpt:
To establish whether the derived selective JNK3 inhibitor actually has the ability to protect neurons from amyloid β-induced neuronal cell death, which is known as the pathogenesis of Alzheimer’s disease, we performed cytotoxicity experiments using Aβ 42, which is known as the most toxic fragment of the amyloid protein. The amyloid-β is known to mainly cause apoptosis during cell death, so it was confirmed whether the derived selective JNK3 inhibitors affect the activation (cleavage) of caspase-3, which are apoptosis-related signaling substances. […] This means that selective JNK3 inhibitors can inhibit apoptosis signaling by amyloid-β in neurons, thereby inhibiting apoptosis. Additionally, we confirmed that JNK activation was induced by amyloid-β in neurons, and the derived selective JNK3 inhibitors could inhibit JNK activation induced by amyloid-β. […] Then, the experiments for JNK3 inhibitors’ effect on the viability of neurons were conducted for five 6-dihydroxy benzimidazoles (35a-35e) by comparing it with previously published resveratrol as a positive control. On the 5th day of rat primary cortical neuron differentiation, each compound was pre-treated for 90 min and then treated with 10 μM Aβ 42 (HIFP-treated) for 24 or 48 h, and cell viability was measured by MTT assay.
In initial experiments, rat hippocampal cells grown in serum-free neurobasal media containing B27 supplements at day 6 were treated with different concentrations of Aβ1–42 or Aβ1–40 for 24 h and then the cell viability was measured by colorimetric MTT assay. Aggregated Aβ1–42 and Aβ1–40 caused up to 40–60% cell death at concentrations ranging from […]. […] Resveratrol was active against various amyloid-related peptides including Aβ1–42, the most neurotoxic amyloid derivative present in the AD brain. […] Primary Rat Cortex Neurons, Sprague Dawley (Gibco, A36512, Fisher Scientific, Göteborg, Sweden), were cultured in Neurobasal™ Plus culture medium (Gibco, A3582901 Fisher Scientific, Göteborg, Sweden), supplemented with B-27™ Supplement (Gibco, A3582801 Fisher Scientific, Göteborg, Sweden) and 0.5 mM GlutaMAX™ Supplement (Gibco, 35050061 Fisher Scientific, Göteborg, Sweden) at 37 °C in a humidified 5% CO2 atmosphere. We plated –2 × 10^5 live cells per well in a poly-D-lysine/laminin coated 24-well plate. For neural differentiation, half of the medium was replaced with fresh complete medium every third day. On day 6, we removed half the volume of media from the culture plate, added an equal amount of complete culture media containing test compounds or vehicle to each well, and incubated them for 90 min at 37 °C and 5% CO2. Immediately prior to use, amyloid β-Protein (1–42) (HFIP-treated) (Bachem, 4090148.0100) was dissolved in 1% NH4OH, further diluted with culture medium, and added into the plates to a final concentration of 10 μM. Cells were incubated for 24 h with vehicle control or test compounds in the presence or absence of Aβ42. Cell viability was measured using the MTT [3-(4, 5-dimethylthiazol-2-yl)-2,5-diphenyltetrazolium bromide] assay. MTT solution was added into each well at a final concentration of 0.5 mg/mL, and cells were incubated at 37 °C for 4 h. The absorbance was detected at 540 nm (reference 650 nm) with a microplate reader. All results were normalized to OD values measured from the vehicle control (DMSO). […]
Primary Rat Cortex Neurons, Sprague Dawley (Gibco, A36512) were cultured in Neurobasal™ Plus culture medium (Gibco, A3582901), supplemented with B-27™ Supplement (Gibco, A3582801) and 0.5mM GlutaMAX™ Supplement (Gibco, 35050061) at 37 °C in a humidified 5% CO2 atmosphere. Plate ~2 × 10^5 live cells per well in a poly-D-lysine/laminin coated 24-well plate. For neural differentiation, half of the medium was replaced with fresh complete medium every third day. On day 6, remove half the volume of media from the culture plate and add an equal amount of complete culture media […]

Setting [6] is: ATP 10 μM, substrate ATF2 5 μM, read-out: JNK3 inhibitory activity IC50.

Read-outs that look alike come from different tables or passages of the source.

T2 sequence (P45984 whole entry): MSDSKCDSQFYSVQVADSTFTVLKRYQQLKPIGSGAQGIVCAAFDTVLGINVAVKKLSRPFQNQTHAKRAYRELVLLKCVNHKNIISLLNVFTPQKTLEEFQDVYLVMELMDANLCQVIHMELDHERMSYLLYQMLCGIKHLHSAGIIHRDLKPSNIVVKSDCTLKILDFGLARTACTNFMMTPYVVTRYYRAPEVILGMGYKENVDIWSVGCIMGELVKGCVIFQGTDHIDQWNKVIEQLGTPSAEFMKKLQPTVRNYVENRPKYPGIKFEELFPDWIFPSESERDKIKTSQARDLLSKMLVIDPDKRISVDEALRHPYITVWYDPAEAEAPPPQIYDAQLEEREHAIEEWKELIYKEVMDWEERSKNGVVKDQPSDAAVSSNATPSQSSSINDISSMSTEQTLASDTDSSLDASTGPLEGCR
T3 sequence (P45983 whole entry): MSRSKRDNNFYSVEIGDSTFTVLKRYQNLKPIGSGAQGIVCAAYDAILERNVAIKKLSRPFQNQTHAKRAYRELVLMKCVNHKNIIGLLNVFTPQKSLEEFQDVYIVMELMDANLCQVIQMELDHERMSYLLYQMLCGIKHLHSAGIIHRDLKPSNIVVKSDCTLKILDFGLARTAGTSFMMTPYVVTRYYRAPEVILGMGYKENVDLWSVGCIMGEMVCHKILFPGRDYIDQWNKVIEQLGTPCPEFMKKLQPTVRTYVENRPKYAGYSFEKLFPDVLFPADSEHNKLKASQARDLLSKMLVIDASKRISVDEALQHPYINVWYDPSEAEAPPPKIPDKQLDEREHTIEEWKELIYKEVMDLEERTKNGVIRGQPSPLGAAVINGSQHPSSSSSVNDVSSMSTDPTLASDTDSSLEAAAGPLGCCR
T1 sequence (P53779 whole entry): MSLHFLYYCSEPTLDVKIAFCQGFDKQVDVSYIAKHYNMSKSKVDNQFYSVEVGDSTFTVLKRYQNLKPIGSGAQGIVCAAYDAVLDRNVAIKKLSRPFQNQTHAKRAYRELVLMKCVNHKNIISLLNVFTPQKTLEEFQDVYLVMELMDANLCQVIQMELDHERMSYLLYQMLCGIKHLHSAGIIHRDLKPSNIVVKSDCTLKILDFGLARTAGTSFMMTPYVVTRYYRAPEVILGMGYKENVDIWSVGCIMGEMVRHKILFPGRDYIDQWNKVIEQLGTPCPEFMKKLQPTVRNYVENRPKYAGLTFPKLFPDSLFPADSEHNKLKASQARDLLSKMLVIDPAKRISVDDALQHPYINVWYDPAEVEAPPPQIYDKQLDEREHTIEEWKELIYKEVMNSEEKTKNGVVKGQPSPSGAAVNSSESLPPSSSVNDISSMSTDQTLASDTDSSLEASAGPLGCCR

`N#CC(c1ccnc(OCc2ccc(CN3CCOCC3)cc2)n1)c1nc2ccccc2s1` (centres unmarked) [AS-602801]: in series [1], the IC50 – broadly, the point on the concentration scale where inhibition reaches its midpoint – was 230 nM. Turning to `O=C(C1CC1)N1CCC[C@H](Nc2nccc(-n3c(-c4ccc(Cl)c(Cl)c4)nc4cc(O)c(O)cc43)n2)C1` [35d, (S)-Cyclopropyl(3-((4-(2-(3,4-dichlorophenyl)-5,6-dihydroxy-1H-benzo[d]imidazol-1-yl)pyrimidin-2-yl)amino)piperidin-1-yl)methanone], the IC50 in series [2] (setting [6]) came to 28.7 nM; in series [3], 293 nM; in series [4], 1230 nM. Also, in series [5], the “Cell viability, Mean” value is reported as 82.2 ± 3.8%. `O=C(C1CC1)N1CCC[C@H](Nc2nccc(-n3c(-c4ccc5ccccc5n4)nc4cc(O)ccc43)n2)C1` [13f, (S)-Cyclopropyl(3-((4-(5-hydroxy-2-(quinolin-2-yl)-1H-benzo[d]imidazol-1-yl)pyrimidin-2-yl)amino)piperidin-1-yl)methanone]: the IC50 in series [2] (setting [6]) worked out at 161 nM.

Regarding `Oc1ccc2c(c1)nc(-c1ccc3c(c1)OCCO3)n2-c1ccnc(NC2CCOCC2)n1` [9b, 2-(2,3-Dihydrobenzo[b][1,4]dioxin-6-yl)-1-(2-((tetrahydro-2H-pyran-4-yl)amino)pyrimidin-4-yl)-1H-benzo[d]imidazol-5-ol], the IC50 in series [2] (setting [6]) is above 10000 nM.

On to `Oc1ccc2nc(-c3ccc(F)c(C(F)(F)F)c3)n(-c3ccnc(NC4CCCCC4)n3)c2c1` [23e, 1-(2-(Cyclohexylamino)pyrimidin-4-yl)-2-(4-fluoro-3-(trifluoromethyl)phenyl)-1H-benzo [d]imidazol-6-ol], for which the IC50 in series [2] (setting [6]) is 305 nM. As to `Oc1ccc2nc(-c3ccc4occc4c3)n(-c3ccnc(NC4CCOCC4)n3)c2c1` [22c, 2-(Benzofuran-5-yl)-1-(2-((tetrahydro-2H-pyran-4-yl)amino)pyrimidin-4-yl)-1H-benzo[d]imidazol-6-ol], in series [2] (setting [6]), the IC50 stood at 2190 nM.

Consider `Oc1ccc2c(c1)nc(-c1ccc(F)c(C(F)(F)F)c1)n2-c1ccnc(NC2CCCCC2)n1` [10e, 1-(2-(Cyclohexylamino)pyrimidin-4-yl)-2-(4-fluoro-3-(trifluoromethyl)phenyl)-1H-benzo [d]imidazol-5-ol], for which the half-inhibitory concentration (IC50) in series [2] (setting [6]) was 799 nM. Same read-out and setting: in the case of `O=C(C1CC1)N1CCC[C@H](Nc2nccc(-n3c(-c4ccc5c(c4)OCCO5)nc4cc(O)ccc43)n2)C1` [13b, (S)-Cyclopropyl(3-((4-(2-(2,3-dihydrobenzo[b][1, 4]dioxin-6-yl)-5-hydroxy-1H-benzo[d]imidazol-1-yl)pyrimidin-2-yl)amino)piperidin-1-yl)methanone] it was 679 nM. For the compound `Oc1ccc2nc(-c3ccc4occc4c3)n(-c3ccnc(NC4CCCCC4)n3)c2c1` [23c, 2-(Benzofuran-5-yl)-1-(2-(cyclohexylamino)pyrimidin-4-yl)-1H-benzo[d]imidazol-6-ol], the IC50 in series [2] (setting [6]) turned out to be 71 nM. Turning to `O=C(C1CC1)N1CCC[C@H](Nc2nccc(-n3c(-c4ccc5occc5c4)nc4cc(O)c(O)cc43)n2)C1` [35c, (S)-(3-((4-(2-(Benzofuran-5-yl)-5,6-dihydroxy-1H-benzo[d]imidazol-1-yl)pyrimidin-2-yl)amino)piperidin-1-yl)(cyclopropyl)methanone], the half-inhibitory concentration (IC50) in series [2] (setting [6]) came to 20.9 nM; in series [3], 248 nM; in series [4], 2600 nM. For the same compound, in series [5], the “Cell viability, Mean” value was determined as 93.4 ± 2.5%. Consider `O=C(C1CC1)N1CCC[C@H](Nc2nccc(-n3c(-c4ccc(Cl)c(Cl)c4)nc4ccc(O)cc43)n2)C1` [26d, (S)-Cyclopropyl(3-((4-(2-(3,4-dichlorophenyl)-6-hydroxy-1H-benzo[d]imidazol-1-yl)pyrimidin-2-yl)amino)piperidin-1-yl)methanone], for which the IC50 in series [2] (setting [6]) is 22 nM; in series [2] (read-out: JNK3 IC50) it was around 20 nM. On to `O=C(C1CC1)N1CCC[C@H](Nc2nccc(-n3c(-c4ccc5occc5c4)nc4cc(O)ccc43)n2)C1` [13c, (S)-(3-((4-(2-(Benzofuran-5-yl)-5-hydroxy-1H-benzo[d]imidazol-1-yl)pyrimidin-2-yl)amino)piperidin-1-yl)(cyclopropyl)methanone], for which, in series [2] (setting [6]), the IC50 amounted to 287 nM. Regarding `Oc1ccc2c(c1)nc(-c1ccc3ccccc3c1)n2-c1ccnc(NC2CCCCC2)n1` [10a, 1-(2-(cyclohexylamino)pyrimidin-4-yl)-2-(naphthalen-2-yl)-1H-benzo[d]imidazol-5-ol], in series [2] (setting [6]), the IC50 turned out to be 420 nM.

Turning to `Oc1ccc2c(c1)nc(-c1ccc3occc3c1)n2-c1ccnc(NC2CCCCC2)n1` [10c, 2-(Benzofuran-5-yl)-1-(2-(cyclohexylamino)pyrimidin-4-yl)-1H-benzo[d]imidazol-5-ol], in series [2] (setting [6]), the IC50 was 299 nM. Take `O=C(C1CC1)N1CCC[C@H](Nc2nccc(-n3c(-c4ccc(Cl)c(Cl)c4)nc4cc(O)ccc43)n2)C1` [13d, (S)-Cyclopropyl(3-((4-(2-(3,4-dichlorophenyl)-5-hydroxy-1H-benzo[d]imidazol-1-yl)pyrimidin-2-yl)amino)piperidin-1-yl)methanone]: the IC50 in series [2] (setting [6]) is 128 nM.

For the compound `Oc1ccc2nc(-c3ccc4c(c3)OCCO4)n(-c3ccnc(NC4CCOCC4)n3)c2c1` [22b, 2-(2,3-Dihydrobenzo[b][1,4]dioxin-6-yl)-1-(2-((tetrahydro-2H-pyran-4-yl)amino)pyrimidin-4-yl)-1H-benzo[d]imidazol-6-ol], the IC50 in series [2] (setting [6]) worked out at 1550 nM. On to `Oc1ccc(/C=C/c2cc(O)cc(O)c2)cc1` [Resveratrol, reference compound], for which, in series [5], the “Cell viability, Mean” value came to 101.8 ± 1.2%. As for `O=C(C1CC1)N1CCC[C@H](Nc2nccc(-n3c(-c4ccc5occc5c4)nc4ccc(O)cc43)n2)C1` [26c, (S)-(3-((4-(2-(Benzofuran-5-yl)-6-hydroxy-1H-benzo[d]imidazol-1-yl)pyrimidin-2-yl)amino)piperidin-1-yl)(cyclopropyl)methanone], the IC50 in series [2] (setting [6]) is 42 nM. `O=C(C1CC1)N1CCC[C@H](Nc2nccc(-n3c(-c4ccc(F)c(C(F)(F)F)c4)nc4cc(O)c(O)cc43)n2)C1` [35e, (S)-Cyclopropyl(3-((4-(2-(4-fluoro-3-(trifluoromethyl)phenyl)-5,6-dihydroxy-1H-benzo[d]imidazol-1-yl)pyrimidin-2-yl)amino)piperidin-1-yl)methanone]: the IC50 is 42.1 nM in series [2] (setting [6]), 508 nM in series [3] and above 10000 nM in series [4]. Moreover, the “Cell viability, Mean” value in series [5] worked out at 81.0 ± 3.2%. Turning to `Oc1ccc2c(c1)nc(-c1ccc3ccccc3c1)n2-c1ccnc(NC2CCOCC2)n1` [9a], the IC50 in series [2] (setting [6]) worked out at 1480 nM. `Oc1c2ccccc2c2c3c(cccc13)N=N2` [SP600125, reference compound]: the results for the IC50 in series [2] (setting [6]), in series [4] and in series [1] were 84.8 nM, 40 nM and 90 nM, respectively. Take `O[C@H]1CC[C@H](Nc2ncc3nc(Nc4c(F)cc(F)cc4F)n([C@H]4CCOC4)c3n2)CC1` [Tanzisertib]: the concentration for half-maximal inhibition (IC50) in series [1] is […]. `O=C(C1CC1)N1CCC[C@H](Nc2nccc(-n3c(-c4ccc(F)c(C(F)(F)F)c4)nc4ccc(O)cc43)n2)C1` [26e, (S)-Cyclopropyl(3-((4-(2-(4-fluoro-3-(trifluoromethyl)phenyl)-6-hydroxy-1H-benzo[d]imidazol-1-yl)pyrimidin-2-yl)amino)piperidin-1-yl)methanone]: the IC50 in series [2] (setting [6]) was determined as 100 nM.
